Data set [1] can be described thus: Test 4: in-blood retention after vein injection (ESR of blood plasma). The settings on record: in vivo, mouse, injected in the vein. The procedure: Each of N-TEMPO-RNP and O-TEMPO-RNP prepared as described above was independently injected in the vein of a different mouse, and after a given time period, laparotomy was performed to carry out blood collection from the heart. After blood collection, centrifugal separation was performed at 6,200 rpm (2000×g) for 10 minutes to obtain blood plasma. When the ESR spectrum of the obtained blood plasma was measured, an ESR signal of each RNP was observed from within the blood. In addition, when the disposition thereof was examined, the half-life was approximately 20 minutes for the former (FIG. 9) and approximately one hour for the latter (FIG. 10).

Data set [2] has as its system Cerebral ischemia model rat. Nature of the data set: Test 5 (1): treatment of cerebral ischemia model rat. The settings on record: in vivo.
Data set [3] relates to cerebral ischemia model rats.
A short description of data set [4]: Test 2: reduction-resistance against glutathione (ESR). Type of data set: physicochemical. The settings on record: 10 mM glutathione, pH7.2, one hour after colocalization with GSH. The procedure: It is known that, in general, while the interior of a cell is a reductive environment with high concentrations (0.5 mM to 10 mM) of glutathione present, on the order of only one over 100 to 1000 of that in the cell is present in blood.

Data set [5] is described as follows: Test 3: reduction-resistance against ascorbic acid (ESR). It is filed as physicochemical. The note with it: 3.6 mM AsA, PBS buffer pH 7.4. From the text: AsA, also referred to as vitamin C, is present in general at high concentrations in blood.

The source of these data is patent publication US8980241B2, “Polymerized cyclic nitroxide radical compound and use thereof” (University of Tsukuba, priority 2008, dated 2015).

Usually half-life stands for the time in which the quantity being followed falls by half. Low values mean rapid decline, high ones slow decline. With `CC1(C)CC(O)CC(C)(C)N1[O]` [Tempol, 4-hydroxy-2,2,6,6-tetramethylpiperidine-1-oxyl], the half-life in data set [1] is < 60 s. Moreover, the “cell death-protection effect in TTC-stained brain” value in data set [2] is “more cell death-protection effect at a given level or greater was obtained than with intravenous administration”. The “cell death in TTC-stained brain” value in data set [2] (iv) is “more effect than N-TEMPO-RNP was not observed”. Moreover, in data set [3] (cerebral ischemia model rats, N=20), the “average blood pressure at the time of agent administration” value is “decreased significantly”. Besides, the neurological symptom score result in data set [3] (score 0-3, N=20) is reported as “no significant differences”.

On to “2,2,6,6-tetramethylpiperidino oxy radical [TEMPO]”, for which the “decrease in the intensity of the ESR signal” value in data set [4] stood at 50%. Further, the “half-life (ESR signal)” value in data set [5] was ≤ 20 s.
